Consider eight compounds from PubChem BioAssay (NCI).

Values joined by “and” are separate entries in the source; they are usually repeats but may differ in a detail not shown here. Identical values can stand only once.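 Five compound concentrations were applied to cells in 96-well plates for 48 hours; endpoints were derived by simple linear interpolation of the resulting dose-response curve. The concentration for 50% growth inhibition is given as GI50. At the TGI there is no net growth.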

Common to all, as to experiment: NCI anticancer screen, dose series, 48 h
The test system of experiment [1] is SN12C renal.
Experiment [2] deals with T-47D breast.
Experiment [3] has as its system SF-268 CNS.
Experiment [4] deals with SR leukemia.
Experiment [5] deals with SNB-19 CNS.
In experiment [6] the test system is HL-60(TB) leukemia.
Experiment [7] concerns UACC-62 melanoma.
Experiment [8] concerns NCI/ADR-RES ovarian.
The test system of experiment [9] is HT29 colon.
The subject of experiment [10] is LOX IMVI melanoma.

As for `COc1ccc(-c2cncn2-c2cc(OC)c(OC)c(OC)c2)cc1`, the GI50 was 0.527 µM in experiment [1]; 3.12 µM in [2]; 2.01 µM in [3]; 2.09 µM in [4]; 0.349 µM in experiment [5]; 1.72 µM in [6]. The GI50 is 0.124 µM in experiment [7], 0.0652 µM in experiment [8], 0.153 µM in [9] and 0.857 µM in experiment [10]. Moreover, the TGI in [1] is > 100 µM; in experiment [2], > 100 µM; in experiment [3] it was 59.7 µM; in experiment [4] it was 6.59 µM; in experiment [5], > 100 µM; in [6], 3.59 µM. Also, the TGI is > 33.7 µM in [7], 0.915 µM in [8], > 100 µM in experiment [9] and > 80.9 µM in experiment [10].
Turning to `COC(=O)c1c(-c2cccs2)oc(-c2cccs2)c1C(=O)OC`, the GI50 in experiment [1] is 61.6 µM; in experiment [2], 28.5 µM; in experiment [3], 42 µM; in [4] it was > 100 µM; in experiment [5], > 100 µM; in [6], 79.9 µM. For the same compound, the GI50 was 27.3 µM in experiment [7], 31.6 µM in experiment [8], 60.2 µM in [9] and 31.9 µM in experiment [10]. For the same compound, the TGI in experiment [1], in experiment [2], in [3], in experiment [4], in experiment [5] and in experiment [6] was > 100 µM in each case. The TGI in [7] is > 100 µM; in experiment [8] it was > 94.5 µM; in [9], > 100 µM; in [10], > 63.1 µM.
As to `CS(=O)(=O)OCCCNCCCOS(C)(=O)=O`, the TGI in experiment [1] worked out at 3830 µM; in experiment [2], 6740 µM; in experiment [3], 7620 µM; in experiment [4], 2970 µM; in experiment [5], 6450 µM; in [6], 2540 µM. Also, the TGI in experiment [7] was found to be 4260 µM; in experiment [8], 6040 µM; in experiment [9], 4480 µM; in experiment [10] it was 3920 µM.
Regarding `CN(C)CCCn1c(=O)c2ccccc2c2cnc3[nH]ccc3c21`, the GI50 in experiment [1] is 2.17 µM; in experiment [2], 2.5 µM; in experiment [3], 1.44 µM; in experiment [4], 0.63 µM; in experiment [5], 2.19 µM; in experiment [6], 3.27 µM. Further, the GI50 was 1.59 µM in experiment [7], 1.25 µM in experiment [8], 1.27 µM in experiment [9] and 0.631 µM in experiment [10]. In addition, the TGI worked out at 14.6 µM in experiment [1]; 7.42 µM in [2]; 5.02 µM in [3]; 13.6 µM in experiment [4]; 10.6 µM in experiment [5]; 9.08 µM in [6]. The TGI in experiment [7] is 2.97 µM; in [8], 6.24 µM; in experiment [9], 8.35 µM; in [10], 3.27 µM.
As to `CS(=O)(=O)c1ccc(Nc2nc(N[C@H]3CCCC[C@H]3N)nc3cc[nH]c(=O)c23)cc1`, the GI50 in experiment [1] is 2.76 µM; in experiment [2] it was 0.891 µM; in experiment [3], 1.33 µM; in experiment [4], 0.68 µM; in [5], 0.714 µM; in [6] it was 0.533 µM. Also, the GI50 in experiment [7] was 1.5 µM; in experiment [8] it was > 100 µM; in [9], 2.48 µM; in [10] it was 0.857 µM. In addition, the TGI in experiment [1] was > 100 µM; in experiment [2], 77.6 µM; in [3], 4.26 µM; in experiment [4] it was 6.03 µM; in experiment [5] it was 28.3 µM; in [6] it was 6.6 µM. The TGI in [7] is 3.5 µM; in [8] it was > 100 µM; in experiment [9], 11.8 µM; in experiment [10] it was 6.7 µM.
For `C#CC1=CC(=O)C(OC)=CC1=O`, the TGI in experiment [1] is 31.7 µM; in experiment [2], 87.5 µM; in experiment [3] it was > 100 µM; in experiment [4] it was 36.4 µM; in [5], > 100 µM; in experiment [6], 13.4 µM. In addition, the TGI is 29.2 µM in [7], > 100 µM in experiment [8], 62 µM in [9] and 40 µM in experiment [10].
With `COc1ccc(-c2cc3c(C)nc(N)nc3n(C3CCC(OCCO)CC3)c2=O)cn1` (stereo not given), the GI50 is 0.079 µM and 0.0758 µM in [1]; 0.0131 µM and 0.0211 µM in [2]; 0.0784 µM and 0.0779 µM in experiment [3]; 0.257 µM and 0.0805 µM in experiment [4]; 0.318 µM and 0.28 µM in [5]; 0.0345 µM and 0.0941 µM in [6]. Also, the GI50 in [7] is 0.02 µM and 0.046 µM; in experiment [8], 0.141 µM and 0.139 µM; in experiment [9], 0.0781 µM and 0.0809 µM; in [10] it was 0.111 µM and 0.0882 µM. The TGI in [1] is > 100 µM; in experiment [2], 0.0735 µM and 0.147 µM; in experiment [3], > 4.35 µM and 5.49 µM; in [4], > 10 µM and 1.44 µM; in experiment [5], 2.84 µM and 3.43 µM; in experiment [6], > 10 µM and 6.38 µM. The TGI was 0.165 µM and 0.365 µM in experiment [7]; 2.06 µM and 1.65 µM in experiment [8]; 1.83 µM and 0.747 µM in experiment [9]; 1.12 µM and 0.943 µM in [10].
`CCCOC(=O)c1c(C)n(C)c2scc[n+]12`: the GI50 in experiment [1] was 59.5 µM; in experiment [2], 38.5 µM; in experiment [3], 48 µM; in experiment [4], 64 µM; in experiment [5], 36.3 µM; in experiment [6], > 100 µM. Besides, the GI50 in experiment [7] is > 100 µM; in experiment [8], > 100 µM; in experiment [9] it was 32.8 µM; in experiment [10] it was 89.7 µM. The TGI in experiment [1], in experiment [2], in [3], in experiment [4], in experiment [5] and in experiment [6] was > 100 µM each time. The TGI in experiment [7], in experiment [8], in experiment [9] and in experiment [10] was > 100 µM in each case.
